Values of other authors as cited in patent US20080176830A1, “Compounds, Compositions, and Methods” (priority 2005, published 2008).

Test system: A549 cells
Settings: data provided by National Cancer Institute

Compound	GI50 [nM]
COc1cccc2c1C(=O)c1c(O)c3c(c(O)c1C2=O)C[C@@](O)(C(=O)CO)C[C@@H]3O[C@H]1C[C@H](N)[C@H](O)[C@H](C)O1 [doxorubicin]	63
NC(=O)NO [hydroxyurea]	500000
O=c1[nH]cc(F)c(=O)[nH]1 [5-fluorouracil]	1000
CC(=O)O[C@H]1C(=O)[C@@]2(C)[C@H]([C@H](OC(=O)c3ccccc3)[C@]3(O)C[C@H](OC(=O)[C@H](O)[C@@H](NC(=O)c4ccccc4)c4ccccc4)C(C)=C1C3(C)C)[C@]1(OC(C)=O)CO[C@@H]1C[C@@H]2O [paclitaxel]	4
